This note sets out measurements from paper PMC10530652 (BME Frontiers, 2021).

Data set [1] concerns patients with fibroproliferative lung disease. The data set can be described thus: Adverse events in the FIB One clinical study. The data set is classed as in vivo, human. As to the method: In initial exploratory testing, 8 patients with either endobronchial tumour or parenchymal fibrosis underwent FIB One microdosing (<100 μg, <5 mL). FIB One was administered using a delivery catheter (ERBE APC catheter or TLBC) passed out of the working channel of the wedged bronchoscope into the bronchus allowing distal dissipation of the compound for alveolar imaging or applied directly onto visible tumour. FCFM imaging was performed pre- and postinstillation of FIB One, with the fibre tip positioned at the bronchial mucosa or passed into the alveolar region following transbronchial puncture, as appropriate for the clinical indication. Images were recorded for at least 30 s at 12 frames/second.
(§1) In subsequent testing the Miniaturized Alveoflex™-TLBC combination replaced the Alveoflex™ fibre. The entire apparatus was passed transbronchially to allow direct alveolar imaging before localised delivery of agents. Once transbronchial pass was accomplished, baseline lung imaging was recorded for at least 30 sec. A 500 μL microdose of either AZD1236 (14 μg/mL) or sterile PBS (control) was administered under direct observation, and further imaging was obtained for >60 sec. 500 μL of FIB One (20 μg/mL) (delivered only after at least 60s to allow MMP inhibition) was then dosed to the same area with a further 90-120 sec of imaging captured. If considerable movement due to breathing or coughing was encountered, imaging was halted and a new segment identified. Up to 6 segments of interest were investigated per patient determined by patient tolerance.
Table S5: Patient demographics and AEs part B. Three patients reported adverse events within the 24h period post procedure all of which are commonly associated with flexible bronchoscopy.

The target in another data set is T1, MMP-2 (Homo sapiens, UniProt P08253).
T1 construct: recombinant MMPs (Enzo Life Sciences) (active domains of MMP-1, MMP-2, MMP-3, MMP-7, MMP-8, MMP-9, MMP-10, MMP-11, MMP-12, and MMP-13); purchased Enzo Life Sciences
T1 sequence (P08253 110-446 limits assumed): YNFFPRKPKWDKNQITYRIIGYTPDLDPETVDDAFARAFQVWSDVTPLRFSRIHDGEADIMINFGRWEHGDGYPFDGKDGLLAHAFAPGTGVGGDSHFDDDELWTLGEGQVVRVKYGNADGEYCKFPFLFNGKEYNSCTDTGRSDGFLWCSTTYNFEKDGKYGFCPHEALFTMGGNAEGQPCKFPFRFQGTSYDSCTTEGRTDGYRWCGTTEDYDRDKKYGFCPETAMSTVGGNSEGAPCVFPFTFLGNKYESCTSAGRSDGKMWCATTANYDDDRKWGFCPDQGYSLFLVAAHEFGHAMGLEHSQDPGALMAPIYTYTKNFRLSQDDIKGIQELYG
The data set can be described thus: In vitro enzymatic validation of FIB One with recombinant MMP-2 (plate reader). The data set is classed as biochemical. As to conditions: MMP 30 nM. As to the method:
(§2) To determine the enzymatic specificity of FIB One, the probe was incubated at a concentration of 1 μM (unless otherwise stated) with the recombinant MMPs (Enzo Life Sciences) (active domains of MMP-1, MMP-2, MMP-3, MMP-7, MMP-8, MMP-9, MMP-10, MMP-11, MMP-12, and MMP-13, all at 30 nM), thrombin (Sigma Aldrich) (5 U/mL), factor Xa (Sigma Aldrich) (500 nM), plasmin (Sigma Aldrich) (30 nM), and human neutrophil elastase (30 nM). Where appropriate, enzymes were incubated with specific inhibitors for 30 min at 37°C prior to addition of FIB One. […] Enzyme free reactions served as a control. Enzymatic reactions were performed in MMP buffer (10 mM CaCl2, 6.1 g Tris-HCl, 8.6 g NaCl per litre, pH 7.5) in a final volume of 20 μL. Reactions were performed in duplicate in 384-well plates (Life Technologies) with optically clear plate seals (Thermo Scientific) and repeated thrice (independently). Fluorescence signal was measured for up to 60 min, ex/em 485/528 nm using microplate reader (BioTek Synergy H1 multimode reader). Data were normalised to buffer alone and are presented as fold-change in signal (relative fluorescent units, RFU) compared to enzyme-free controls. Data were plotted using Prism 7 (GraphPad Software Inc., La Jolla, CA, USA).

The target of the next data set is T2, MMP-13 (Homo sapiens, UniProt P45452).
T2 construct: recombinant MMPs (Enzo Life Sciences) (active domains of MMP-1, MMP-2, MMP-3, MMP-7, MMP-8, MMP-9, MMP-10, MMP-11, MMP-12, and MMP-13); purchased Enzo Life Sciences
The data set can be described thus: In vitro enzymatic validation of FIB One with recombinant MMP-13 (plate reader). The data set is classed as biochemical. As to conditions: MMP 30 nM. As to the method:
as §2, with “Fluorescence signal was measured for up to 60 min, ex/em 485/528 nm using microplate reader (BioTek Synergy H1 multimode reader).” left out

A further data set relates to Crl:WI(Han) rats. Nature of the data set: Single intratracheal administration toxicity study of AZD1236. The data set is classed as in vivo, rat. As to conditions: 35 µg/animal (70 µg/mL). As for the experimental part: Assessment of toxicity of AZD1236 was based on clinical signs, body weight, food consumption, clinical and anatomic pathology evaluations. Complete necropsies were performed on all animals with a recording of macroscopic abnormalities for all tissues. Organ weights and microscopic examinations were conducted as indicated.

Data set [2] relates to MMP activity in the alveolar space. Nature of the data set: In vivo assessment of FIB One and AZD1236 with TLBC in patients. Set-up: species or system human. As to conditions: 500 μL AZD1236 14 μg/mL predelivered, then 500 μL FIB One 20 μg/mL, nine patients. As to the method: as §1
All video sequences were assessed by two clinicians with clinical experience of pulmonary endomicroscopy. Frames with excessive movement or lack of recognizable alveolar structure were removed from analysis. Videos were assessed to ensure stability throughout the imaging procedure. […] All video files were analysed using the Cellvizio® Viewer image processing software from Mauna Kea Technologies, Paris. […] The median RFU was calculated for each category and used as a comparative value between groups.

The mark [3] stands for this setting: FIB One 1 μM, MMP buffer pH 7.5, ex/em 485/528 nm, fold-change vs enzyme-free control, n=3 in duplicate.
The mark [4] stands for this setting: AZD1236 0.11-14 µM, FIB One 1 µM.

(Pro-Phe-Gly-Nle-Lys-βAla)3 [FIB One]: the “Adverse Events” value in data set [1] (Part A, one line per patient DO01-DO08, FIB One microdose <100 μg) was “Nil and Haemoptysis and Cough and Fever”; in data set [1] (Part B, one line per patient DO09-DO17, FIB One with or without AZD1236 via TLBC, within 24h post procedure) it was “Nil and Cough and Cough Fever and Haemoptysis”. In data set [1] (eight patients, endobronchial FIB One bolus), the significant adverse events entry is reported as “no significant adverse events”. The “fluorescent amplification of FIB One on exposure to enzyme” value was “rapid and specific fluorescent amplification” at MMP-2 (setting [3]); “rapid and specific fluorescent amplification” on MMP-13 (setting [3]). On MMP-13 (probes 1 µM, 10 min incubation, n=3 in duplicate), the “signal amplification compared with analogous monomeric linear structure (FRET-monomer)” value was “improved signal amplification”.
With AZD1236, in the data set on Crl:WI(Han) rats, the “deaths, clinical signs, body weight, food consumption, clinical or anatomic pathology” value was “no deaths, no adverse clinical signs and no effects of treatment”; the “tolerability, acute or delayed toxicity” value is recorded as “well tolerated with no evidence of acute or delayed toxicity”. Also, the “inhibition of MMP” value on MMP-2 (setting [4]) was “ability to inhibit”. Besides, on MMP-13 (setting [4]), the “inhibition of MMP” value is “ability to inhibit”. In addition, the “drug-target engagement within the alveolar space” value in data set [2] was “in situ in vivo drug-target engagement”.
